Experimental data as given in US20240025906A1 (NEURON23, INC., priority 2022, published 2024).

Assays:
[1] = target: T1, TYK2 JH2 (Homo sapiens, UniProt P29597); experiment: TYK2 JH2 binding assay (KINOMEscan KdELECT competitive binding); conditions: TYK2 JH2 domain, KINOMEscan KdELECT (Assay A); read-out: Biochemical TYK2_DiscoverX_JH2_BND_Kd
T1 construct: purchased DiscoverX (KINOMEscan KdELECT service); host or cells: E. coli BL21-derived (T7 phage display) or HEK-293
Summary of the method: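 Competition binding, KdELECT format. Kinase (phage-tagged, E. coli BL21-derived host; or HEK-293, DNA-tagged) + ligand-coated streptavidin beads + cpd, 1 h RT, final DMSO 0.9%. Wash, elute 30 min with 0.5 μM non-biotinylated ligand; qPCR readout. Kd: 11-pt, 3-fold series.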

[2] = test system: JAK1/TYK2 pSTAT5 (Tyr694/699) in THP-1 cell line; experiment: IFNa-stimulated JAK1/TYK2 pSTAT5 (Tyr694/699) inhibition cellular assay, AlphaLISA; type: cell-based; conditions: Homo sapiens; THP-1 cells, IFNa-stimulated, AlphaLISA (Assay B); read-out: Cellular_THP1_IFNa-pSTATS_TYK2
Summary of the method: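 THP-1 cells (2e4/well in HBSS) were preincubated with compound (8 points, 6-fold steps from 10000 nM final) for 1 h at 37 °C, then stimulated with IFNa (added at 100 ng/mL) for 30 min. Lysate pSTAT5 was read by AlphaLISA at 615 nm. IC50 came from a 4-parameter fit with bottom 0 and Hill −1.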

T1 sequence (P29597 589-875 limits assumed): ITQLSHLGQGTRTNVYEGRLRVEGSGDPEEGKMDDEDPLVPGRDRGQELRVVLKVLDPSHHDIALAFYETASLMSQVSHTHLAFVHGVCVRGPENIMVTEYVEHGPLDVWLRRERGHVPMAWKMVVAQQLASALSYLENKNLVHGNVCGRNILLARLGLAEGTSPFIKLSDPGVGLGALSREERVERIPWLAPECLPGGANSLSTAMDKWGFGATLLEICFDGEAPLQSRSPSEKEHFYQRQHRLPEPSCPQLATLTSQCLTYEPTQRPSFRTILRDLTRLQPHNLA

Row | SMILES | Kd [1] | IC50 [2]
1 | [2H]C([2H])([2H])Nc1ncc(/C=C/c2ccc(OCCC#N)cc2)c2cc(NC(=O)[C@H]3C[C@H]3C)ncc12 [Example 799, (1S,2R)—N-(5-((E)-4-(2-cyanoethoxy)styryl)-8-((methyl-d3)amino)-2,7-naphthyridin-3-yl)-2-methylcyclopropane-1-carboxamide] | ≤ 100 nM | ≤ 500 nM
2 | CNc1nc(CO)c(C#Cc2ccc(OC)cn2)c2cc(NC(=O)C3CC3)ncc12 [Example 800, N-(6-(hydroxymethyl)-5-((5-methoxypyridin-2-yl)ethynyl)-8-(methylamino)-2,7-naphthyridin-3-yl)cyclopropanecarboxamide] | ≤ 100 nM | ≤ 500 nM
3 | CNc1ncc(C#Cc2ccc3oc(C)nc3c2)c2cc(NC(=O)C3CC3)ncc12 [Example 801, N-(8-(methylamino)-5-((2-methylbenzo[d]oxazol-5-yl)ethynyl)-2,7-naphthyridin-3-yl)cyclopropanecarboxamide] | ≤ 100 nM | ≤ 500 nM
4 | CNc1ncc(C#Cc2ccnn2C)c2cc(NC(=O)C3CC3)ncc12 [Example 804, N-(5-((1-methyl-1H-pyrazol-5-yl)ethynyl)-8-(methylamino)-2,7-naphthyridin-3-yl)cyclopropanecarboxamide] | ≤ 100 nM | ≤ 500 nM
5 | CCn1ncc(C#Cc2cnc(NC)c3cnc(NC(=O)C4CC4)cc23)n1 [Example 805, N-(5-((2-ethyl-2H-1,2,3-triazol-4-yl)ethynyl)-8-(methylamino)-2,7-naphthyridin-3-yl)cyclopropanecarboxamide] | ≤ 100 nM | ≤ 500 nM
6 | CNc1ncc(C#Cc2ccc(-n3cccn3)cc2)c2cc(NC(=O)C3CC3)ncc12 [Example 806, N-(5-((4-(1H-pyrazol-1-yl)phenyl)ethynyl)-8-(methylamino)-2,7-naphthyridin-3-yl)cyclopropanecarboxamide] | ≤ 100 nM | ≤ 500 nM
7 | CNc1ncc(C#Cc2ccc3nc4n(c3c2)CCCC4)c2cc(NC(=O)C3CC3)ncc12 [Example 807, N-(8-(methylamino)-5-((1,2,3,4-tetrahydrobenzo[4,5]imidazo[1,2-a]pyridin-8-yl)ethynyl)-2,7-naphthyridin-3-yl)cyclopropanecarboxamide] | ≤ 100 nM | ≤ 500 nM
8 | CNc1ncc(C#Cc2ccc3nc4n(c3c2)CCC=C4)c2cc(NC(=O)C3CC3)ncc12 [Example 808, N-(5-((1,2-dihydrobenzo[4,5]imidazo[1,2-a]pyridin-8-yl)ethynyl)-8-(methylamino)-2,7-naphthyridin-3-yl)cyclopropanecarboxamide] | ≤ 100 nM | ≤ 500 nM
9 | CNc1ncc(C#Cc2ccc3nc4n(c3c2)CCC(F)=C4)c2cc(NC(=O)C3CC3)ncc12 [Example 809, N-(5-((3-fluoro-1,2-dihydrobenzo[4,5]imidazo[1,2-a]pyridin-8-yl)ethynyl)-8-(methylamino)-2,7-naphthyridin-3-yl)cyclopropanecarboxamide] | ≤ 100 nM | ≤ 500 nM
10 | CCc1nc2ccc(C#Cc3cnc(NC)c4cnc(NC(=O)C5CC5)cc34)cc2n1C [Example 811, N-(5-((2-ethyl-1-methyl-1H-benzo[d]imidazol-6-yl)ethynyl)-8-(methylamino)-2,7-naphthyridin-3-yl)cyclopropanecarboxamide] | ≤ 100 nM | ≤ 500 nM
11 | [2H]C1([2H])Oc2ccc(C#Cc3cnc(NC)c4cnc(NC(=O)C5CC5)cc34)cc2O1 [Example 812, N-(5-((benzo[d][1,3]dioxol-5-yl-2,2-d2)ethynyl)-8-(methylamino)-2,7-naphthyridin-3-yl)cyclopropanecarboxamide] | ≤ 100 nM | ≤ 500 nM
12 | CNc1ncc(C#Cc2ccc3oc(C)cc3c2)c2cc(NC(=O)C3CC3)ncc12 [Example 813, N-(8-(methylamino)-5-((2-methylbenzofuran-5-yl)ethynyl)-2,7-naphthyridin-3-yl)cyclopropanecarboxamide] | ≤ 100 nM | ≤ 500 nM
13 | CNc1ncc(C#Cc2ccc(CN3C4CCC3COC4)cc2)c2cc(NC(=O)C3CC3)ncc12 [Example 815, N-(5-((4-(3-oxa-8-aza-bicyclo[3.2.1]octan-8-ylmethyl)phenyl)ethynyl)-8-(methylamino)-2,7-naphthyridin-3-yl)cyclopropanecarboxamide] | ≤ 100 nM | ≤ 500 nM
14 | CNc1ncc(C#Cc2ccc(CN3CC(OC)C3)cc2)c2cc(NC(=O)C3CC3)ncc12 [Example 816, N-(5-((4-((3-methoxyazetidin-1-yl)methyl)phenyl)ethynyl)-8-(methylamino)-2,7-naphthyridin-3-yl)cyclopropanecarboxamide] | ≤ 100 nM | ≤ 500 nM
15 | [2H]C([2H])([2H])n1nnc2ccc(C#Cc3cnc(NC)c4cnc(NC(=O)C5CC5)cc34)cc21 [Example 817, N-(5-((1-(methyl-d3)-1H-benzo[d][1,2,3]triazol-6-yl)ethynyl)-8-(methylamino)-2,7-naphthyridin-3-yl)cyclopropanecarboxamide] | ≤ 100 nM | ≤ 500 nM
16 | [2H]C([2H])([2H])Nc1ncc(C#Cc2ccc3nc(C(F)F)n(C)c3c2)c2cc(NC(=O)C3CC3)ncc12 [Example 818, N-(5-((2-(difluoromethyl)-1-methyl-1H-benzo[d]imidazol-6-yl)ethynyl)-8-((methyl-d3)amino)-2,7-naphthyridin-3-yl)cyclopropanecarboxamide] | ≤ 100 nM | ≤ 500 nM
17 | [2H]C([2H])([2H])Nc1ncc(C#Cc2ccc3nc(C(F)F)n(C)c3c2)c2cc(NC(=O)[C@H]3C[C@H]3C)ncc12 [Example 819, (1S,2R)—N-(5-((2-(difluoromethyl)-1-methyl-1H-benzo[d]imidazol-6-yl)ethynyl)-8-((methyl-d3)amino)-2,7-naphthyridin-3-yl)-2-methylcyclopropane-1-carboxamide] | ≤ 100 nM | ≤ 500 nM
18 | CNc1ncc(C#Cc2ccc(CN3CCOCC3)cc2)c2cc(NC(=O)C3CC3)ncc12 [Example 820, N-(8-(methylamino)-5-((4-(morpholinomethyl)phenyl)ethynyl)-2,7-naphthyridin-3-yl)cyclopropanecarboxamide] | ≤ 100 nM | ≤ 500 nM
19 | CNc1ncc(C#Cc2ccc(CN3CCOCC3)cc2)c2cc(NC(=O)[C@H]3C[C@H]3C)ncc12 [Example 821, (1S,2R)-2-methyl-N-(8-(methylamino)-5-((4-(morpholinomethyl)phenyl)ethynyl)-2,7-naphthyridin-3-yl)cyclopropane-1-carboxamide] | ≤ 100 nM | ≤ 500 nM
20 | CNc1ncc(Br)c2c1cnc1[nH]ccc12 [Example 824, 9-bromo-N-methyl-3H-pyrrolo[2,3-c][2,7]naphthyridin-6-amine] | 100 to 1000 nM | > 500 nM
21 | CNc1ncc(-c2nc3ccccc3o2)c2c1cnc1[nH]ccc12 [Example 825, 9-(benzo[d]oxazol-2-yl)-N-methyl-3H-pyrrolo[2,3-c][2,7]naphthyridin-6-amine] | ≤ 100 nM | > 500 nM
22 | CNc1ncc(CCc2cc(OC)cc(-c3ncnn3C)c2)c2cc(NC(=O)C3CC3)ncc12 [Example 826, N-(5-(3-methoxy-5-(1-methyl-1H-1,2,4-triazol-5-yl)phenethyl)-8-(methylamino)-2,7-naphthyridin-3-yl)cyclopropanecarboxamide] | ≤ 100 nM | > 500 nM
23 | CNc1ncc(-c2nc(Cc3ncn(C)n3)co2)c2cc(NC(=O)C3CC3)ncc12 [Example 827, N-(5-(4-((1-methyl-1H-1,2,4-triazol-3-yl)methyl)oxazol-2-yl)-8-(methylamino)-2,7-naphthyridin-3-yl)cyclopropanecarboxamide] | ≤ 100 nM | > 500 nM
24 | CNc1ncc(-c2nc(Cc3ncnn3C)co2)c2cc(NC(=O)C3CC3)ncc12 [Example 828, N-(5-(4-((1-methyl-1H-1,2,4-triazol-5-yl)methyl)oxazol-2-yl)-8-(methylamino)-2,7-naphthyridin-3-yl)cyclopropanecarboxamide] | ≤ 100 nM | > 500 nM
25 | CNc1ncc(-c2nc(-c3nc[nH]n3)co2)c2cc(NC(=O)C3CC3)ncc12 [Example 829, N-(5-(4-(1H-1,2,4-triazol-3-yl)oxazol-2-yl)-8-(methylamino)-2,7-naphthyridin-3-yl)cyclopropanecarboxamide] | ≤ 100 nM | ≤ 500 nM
26 | CNc1ncc(-c2nc(-c3ncn(C)n3)co2)c2cc(NC(=O)C3CC3)ncc12 [Example 830, N-(5-(4-(1-methyl-1H-1,2,4-triazol-3-yl)oxazol-2-yl)-8-(methylamino)-2,7-naphthyridin-3-yl)cyclopropanecarboxamide] | ≤ 100 nM | ≤ 500 nM
27 | CNc1ncc(-c2nc(-c3ncnn3C)co2)c2cc(NC(=O)C3CC3)ncc12 [Example 831, N-(5-(4-(1-methyl-1H-1,2,4-triazol-5-yl)oxazol-2-yl)-8-(methylamino)-2,7-naphthyridin-3-yl)cyclopropanecarboxamide] | ≤ 100 nM | > 500 nM
28 | CNc1ncc(C2=CCCC(c3nc[nH]n3)C2)c2cc(NC(=O)C3CC3)ncc12 (centres unmarked) [Example 832, N-(5-(5-(1H-1,2,4-triazol-3-yl)cyclohex-1-en-1-yl)-8-(methylamino)-2,7-naphthyridin-3-yl)cyclopropanecarboxamide] | ≤ 100 nM | > 500 nM
